Source: patent publication US20250101061A1, “UPREGULATION OF FERRITIN HEAVY CHAIN 1 EXPRESSION” (HBC Immunology Inc., priority 2022, published 2025)
Where “and” joins values, the source holds several entries; their conditions need not be identical. Equal entries are not always repeated. Peptide text beside a SMILES is read from it.

Key:
FTH1 = FTH1 mRNA levels in mouse bone marrow-derived macrophages (qPCR); assay type: cell-based; settings: murine macrophages; for FTH1 Levels, Fe-Normal / FTH1 Levels, DFO (−Fe) / FTH1 Levels, Fe-NTA (+Fe): SPH 160 μM or oligopeptide 10 μM; for FTH1 Levels, Fe-Normal: normal iron, normalized to Hprt1, relative to control samples; for FTH1 Levels, DFO (−Fe): with DFO 100 μM 16 h; for FTH1 Levels, DFO (−Fe) / FTH1 Levels, Fe-NTA (+Fe): relative to control samples; for FTH1 Levels, Fe-NTA (+Fe): with Fe-NTA 8 h; for FTH1 mRNA expression: normal and iron-depleted conditions
Protocol: (§1) Cell Cultures. MBMMs (C57BL/6 genetic background) were obtained from CellBiologics.net and prepared under the conditions recommended by the supplier. Isolated MBMMs were seeded onto 10 cm diameter Petri dishes and grown in RPMI-GlutaMAX™ medium (Invitrogen) supplemented with 10% heat-inactivated FCS (Gibco), 10% L-cell-conditioned medium (source of colony-stimulating factor 1), 2 mM L-glutamine, 50 U/mL penicillin, and […] streptomycin. At 4 days after seeding, the adherent MBMMs were rinsed twice with Hanks balance salt solution (HBSS), and the medium was renewed for 7 days, at which point the MBMMs had completely differentiated into macrophages that were ready for downstream experimental applications.
(§2) Cell Treatments. SPH (average molecular weight of about 1100 Daltons) and oligopeptides were dissolved in sterile water to obtain […] stock solutions. The SPH and oligopeptides were further diluted in cell culture media to reach final concentrations of 160 μM SPH and 10 μM oligopeptide per Petri dish.
(§3) Murine macrophages were incubated with SPH or an oligopeptide in the presence or absence of an iron-nitrilotriacetate solution (Fe-NTA; FeCl3 (100 μM)-NTA (400 μM)) for 8 h at 37° C. to increase cellular iron concentration. Murine macrophages were also incubated with SPH or an oligopeptide in the presence or absence of desferrioxamine mesylate (DFO; 100 μM) for 16 h at 37° C. to decrease cellular iron concentration. Commercial collagen peptide (Vital Protein) at a 10 μM concentration and sterile water were used as negative controls.
Measurement of Gene Expression. Total RNA was extracted from macrophages using the Qiagen miRNeasy Mini Kit for purification of total RNA from animal and human cells and tissues according to the manufacturer's instructions. About 2 μg of total RNA was transcribed into cDNA, after RT2 RNA QC PCR Array was run to confirm the quality of the RNA samples followed by gene expression analysis using RT2 Profiler PCR array.
(§4) The primers used for amplification of cDNA were: […]
All reactions were performed in a total reaction volume of 20 μl with iQ™ SYBR® Green Supermix (Bio-Rad) and carried out in the iQ™5 instrument (Bio-Rad). Baseline thresholds were calculated by Bio-Rad iQ5 program, and the threshold cycles (Ct) were used, wherein Ct values for the Fth1 gene were normalized to expression levels of Hprt1 (housekeeping) gene. Results are shown in Table 8-2 as n-fold difference relative to the control samples.

L-Ferritin = L-Ferritin gene expression in hemin-treated astrocytes by qRT-PCR; assay type: cell-based, human; settings: SPH 160 μM, oligopeptide 10 μM, collagen control 160 μM, after 6 hr hemin; for L-Ferritin Fold Change (individual runs): GAPDH housekeeping, normalized to control wells
Protocol: Immortalized human astrocytes (P10251-IM) were obtained from Innoprot, Spain and prepared under conditions recommended by the supplier. At 90% confluency, the P10251-IM cells were rinsed with 8 ml of DPBS and 2 ml of the T/E Solution (prepared as per Innoprot procedure), then added into an […] and gently rocked so that the P10251-IM cells would be completely covered. The flask was subsequently incubated at 37° C. for 2 minutes. Then 5 ml of fetal bovine serum (FBS) and the T/E solution from the flask were added into a 50 ml conical centrifuge tube. The flask was incubated for an additional 2 minutes, and the P10251-IM cells dislodged from the surface by gentle tapping. The P10251-IM cells were then transferred to the 50 ml conical centrifuge tube with 5 ml of TNS solution. The tube was centrifuged at 1000 rpm for 5 minutes. Then the P10251-IM cells were resuspended in the culture medium, counted, and plated in a poly-L-lysine-coated culture plate at 1×10^4 cell density. Cells were tested after they were incubated for 21 days in vitro.
Confluent P10251-IM cell cultures were washed and then pre-treated with medium alone, or medium supplemented with SPH (160 μM) or an oligopeptide (10 μM) for 24 hr at 37° C. Commercial collagen peptide (Vital Protein) at 160 μM concentration and sterile water were used as negative controls. The P10251-IM cells were subsequently treated with 30 μM hemin in serum-free medium consisting of MEM with 10 mM glucose (MEM10) for 6 hrs.
L-Ferritin and H-Ferritin gene expression were then quantified. Briefly, after 6 hr incubation with hemin, the astrocytes were lysed, and RNA was extracted using the Qiagen lipid mini kit. The expression of both genes (L-ferritin and H-ferritin) involved in iron homeostasis was assessed by qRT-PCR. Fold changes were calculated using the ΔCt method, using GAPDH as the housekeeping gene. Fold changes were normalized to expression levels in control wells. Experiments were run in triplicate.
as §4

H-Ferritin = H-Ferritin protein levels in mouse bone marrow-derived macrophages (ELISA); assay type: cell-based; settings: murine macrophages; for H-Ferritin Protein Levels, Fe-Normal / H-Ferritin Protein Levels, DFO (−Fe) / H-Ferritin Protein Levels, Fe-NTA (+Fe): SPH 160 μM or oligopeptide 10 μM; for H-Ferritin Protein Levels, Fe-Normal: normal iron, average of triplicate; for H-Ferritin Protein Levels, DFO (−Fe): with DFO 100 μM 16 h; for H-Ferritin Protein Levels, Fe-NTA (+Fe): with Fe-NTA 8 h; for intracellular H-Ferritin protein levels: normal and iron-depleted conditions
Protocol: as §1, §2, §3
Quantification of H-Ferritin. Macrophages were washed with cold saline and lysed with 400 μl of a solution containing 50 mM HEPES (Gibco), 1% IGEPAL C-630 (Sigma), and 1% proteases inhibitor cocktail P840 (Sigma). H-Ferritin concentrations in the lysates were determined by ELISA using polyclonal antibodies raised against mouse recombinant H-ferritin subunits and calibrated with the corresponding recombinant homopolymers. The specificity and the absence of cross-reactivity of the antibodies are documented. The results were expressed as (ng ferritin) per (mg total protein) in the cell lysate and shown as an average of triplicate readings in Table 8-1. Total protein content was measured using the BCA protein assay kit (Pierce).

Compound	FTH1 Levels, Fe-Normal (FTH1) [n-fold]	FTH1 Levels, DFO (−Fe) (FTH1) [n-fold]	FTH1 Levels, Fe-NTA (+Fe) (FTH1) [n-fold]	FTH1 mRNA expression (FTH1)	L-Ferritin Fold Change, Average (L-Ferritin) [fold]	L-Ferritin Fold Change (individual runs) (L-Ferritin)	H-Ferritin Protein Levels, Fe-Normal (H-Ferritin) [ng/mg total protein]	H-Ferritin Protein Levels, DFO (−Fe) (H-Ferritin) [ng/mg total protein]	H-Ferritin Protein Levels, Fe-NTA (+Fe) (H-Ferritin) [ng/mg total protein]	intracellular H-Ferritin protein levels (H-Ferritin)
CSCC[C@H](NC(=O)[C@@H]1CCCN1C(=O)[C@H](CCCCN)NC(=O)[C@H](CC(=O)O)NC(=O)[C@H](CO)NC(=O)[C@H](CCC(=O)O)NC(=O)[C@H](CCC(=O)O)NC(=O)[C@@H](N)CCCNC(=N)N)C(=O)N[C@@H](Cc1ccc(O)cc1)C(=O)O [FT-006, REESDKPMY] (H-REESDKPMY-OH)	2.7	3.3	2.8	substantial increases	1.3	1.3 fold	174	105	257	substantial increases
N=C(N)NCCC[C@H](NC(=O)[C@@H]1CCCN1)C(=O)N[C@@H](CCC(=O)O)C(=O)N[C@@H](CCC(=O)O)C(=O)N[C@@H](CO)C(=O)N[C@@H](CC(=O)O)C(=O)N[C@@H](CCCCN)C(=O)N1CCC[C@H]1C(=O)O [FT-007, PREESDKP] (H-PREESDKP-OH)	1.9	3.1	2.9	substantial increases	1.1	1.1 fold and 1.2 fold and 1.0 fold	142	111	197	substantial increases
CC(C)C[C@H](NC(=O)[C@H](CCC(=O)O)NC(=O)CNC(=O)[C@H](CO)NC(=O)[C@H](CCC(=O)O)NC(=O)[C@H](CCC(=O)O)NC(=O)[C@@H](N)CCCNC(=N)N)C(=O)O [FT-008, REESGEL] (H-REESGEL-OH)	2.5	3.4	2.7	substantial increases	1.6	1.8 fold and 1.6 fold and 1.5 fold	158	122	200	substantial increases
